# From patent US11859252B2, “Diagnostic and therapeutic methods for cancer” (Genentech, Inc., priority 2017, dated 2024)
# Entries after “also recorded” stand apart in the source; their conditions may differ.
# Tests used:
# [1] = system: pMEK, pERK, pRSK, pAKT; experiment: Immunoblot of pathway markers after compound treatment; assay type: cell-based; details: A549
# Method: (§1) Cells lysed in lysis buffer (0.5% NP40, 20 mM Tris, pH 7.5, 137 mM NaCl, 10% glycerol, 1 mM EDTA) plus protease inhibitor mixture-complete mini (Roche Applied Science, 11836170001) and phosphatase inhibitor mix (Thermo, 78426). Lysates were centrifuged at 15,000 rpm for 10 minutes and the protein concentration determined using BCA (Thermo, 23227). Equal amounts of protein were subjected to SDS-PAGE NuPAGE 4-12% Bis-Tris Gel (Novex, WG-1403) and transferred to nitrocellulose membrane (BioRad, 170-4159). After blocking in blocking buffer (Li-Cor, 927-40000), membranes were incubated with the indicated primary antibodies and analyzed either by the addition of secondary antibodies IRDye 680LT Goat anti-Mouse IgG (H+L) (Li-Cor, 926-68050) or IRDye 800CW goat anti-Rabbit IgG (H+L) (Li-Cor, 926-32211). The membranes were visualized on the LiCor Odyssey CLx Scanner.
# [2] = system: DUSP6 and SPRY4; experiment: RNA sequencing of MAPK transcriptional targets; assay type: cell-based; details: 0.1 μM AZ-628 combined with cobimetinib; six hours; four KRAS mutant lung cancer cell lines; FIG. 2C
# Method: Cells were seeded overnight and treated with AZ-628 and cobimetinib either singly (0.1 μM) or in combination (0.1 μM each) for 6 hours. Control cells were treated with DMSO (0.2% final concentration). Total RNA was extracted as per manufacturer's protocol using RNEasy mini kits with on-column DNAse digestion (Qiagen #74106 and #79254). Quality control of samples was done to determine RNA quantity and quality prior to their processing by RNA-seq. The concentration of RNA samples was determined using NanoDrop 8000 (Thermo Scientific) and the integrity of RNA was determined by Fragment Analyzer (Advanced Analytical Technologies). 0.5 μg of total RNA was used as an input material for library preparation using TruSeq RNA Sample Preparation Kit v2 (Illumina). Size of the libraries was confirmed using 2200 TapeStation and High Sensitivity D1000 screen tape (Agilent Technologies) and their concentration was determined by qPCR based method using Library quantification kit (KAPA). The libraries were multiplexed and then sequenced on Illumina HiSeq2500 (Illumina) to generate 30M of single-end 50 base pair reads.
# Reads were mapped to the hg19 genome using RefSeq gene models with the aligner GSNAP. […] Significance for linear model terms was determined by moderated t-tests as implemented in the limma software.
# [3] = system: A549 cells; experiment: Apoptosis: cleaved PARP Western blot and Annexin V/propidium iodide flow cytometry; assay type: cell-based; details: AZ-628 combined with cobimetinib; 48 hours; FIG. 2D-2E
# Method: as §1
# [4] = system: A549 cells; experiment: Clonogenic (colony growth) assay; assay type: cell-based
# Method: (§2) Cells were plated in duplicate in 6-well plates at 10,000 cells/well, allowed to attach overnight and treated for 8 days with the indicated compounds. Media with appropriate compounds was replenished every 72 hours. At 8 days cells were rinsed once with PBS, fixed and stained with crystal violet solution (Sigma Aldrich, HT90132) for 20 minutes and washed with water.
# [5] = system: 322 cell lines (pancreas, lung, colorectal, skin, ovary and blood); experiment: 322 cell line screen, AZ-628 and cobimetinib single agents and co-dilution; assay type: cell-based
# Method: (§3) Compounds were screened in nine-point dose response using a three-fold dilution. Cells were seeded into 384-well plates 24 hours prior to compound addition. Cells were then incubated with compound for 72 hours or 120 hours before assaying viability (CellTiter-Glo, Promega). Assays were performed in biological triplicate. Cells were incubated (37° C., 5% CO2) in RPMI-1640, 2.5% FBS (72 hour assay) or 5% FBS (120 hour assay), and 2 mM glutamine throughout the assay. The reported IC50 and mean viability metrics are as follows: IC50 is the dose at which the estimated inhibition is 50% relative to untreated wells (i.e., absolute IC50). Mean viability is equivalent to the area under the log-dose/viability curve divided by the total number of tested doses.
# (§4) For combination synergy studies, cells were plated in 384-well plates (Corning) and treated with varying concentrations of compound, either alone or in combination for 72 hours. Cell viability was determined using CellTiter-Glo Luminescent Cell Viability Assay (Promega, G7573). Synergistic effects were determined using the Bliss independence analysis methods (Greco et al. Pharmacol. Rev. 47: 331-385, 1995; Chou and Talalay. Adv. Enzyme Regul. 22:27-55, 1984; Chou. Cancer Res. 70: 440-446, 2010; Bliss. Ann. Appl. Biol. 25: 31, 1939).
# [6] = system: SW48 isogenic cell line; experiment: SW48 isogenic KRAS knock-in cells, crystal violet and pERK Western blot; assay type: cell-based; details: AZ-628 starting at 0.1 μM, cobimetinib 250 nM; FIGS. 6F-6G
# Method: as §2, §1
# [7] = system: panel of 213 tumor cell lines; experiment: 213 cell line panel, co-diluted combinations with pictilisib; assay type: cell-based; details: 3 days, FIG. 7A
# Method: as §3, §4
# [8] = system: NRAS mutant melanoma cell line; experiment: Viability of NRAS mutant melanoma versus BRAF-V600E and wild-type lines; assay type: cell-based
# Method: Compounds were screened in nine-point dose response using a three-fold dilution. Cells were seeded into 384-well plates 24 hours prior to compound addition. Cells were then incubated with compound for 72 hours or 120 hours before assaying viability (CellTiter-Glo, Promega). Assays were performed in biological triplicate. […] Mean viability is equivalent to the area under the log-dose/viability curve divided by the total number of tested doses.
# [9] = system: NCI-H2122 lung xenograft tumor; experiment: NCI-H2122 lung xenograft tumor model
# Method: The formulations were mixed well by vortexing before dosing. Test articles were stored in a refrigerator set to maintain a temperature range of 4° C.-7° C.
# Only animals that appeared to be healthy and that were free of obvious abnormalities were used for each study. Tumor volumes were determined using digital calipers (Fred V. Fowler Company, Inc.) using the formula (L×W×W)/2. […] Mice were weighed twice a week using a standard scale.
structure (smiles),measurement,setting,value
Cc1ccc(NC(=O)c2cccc(C(C)(C)C#N)c2)cc1Nc1ccc2ncn(C)c(=O)c2c1 [AZ-628],pMEK accumulation and signaling to ERK,"[1]; AZ-628 combined with pictilisib, 24 hours, FIG. 7G",prevent the accumulation of pMEK and abrogate downstream signaling to ERK
same,pAKT levels,"[1]; AZ-628 in combination with cobimetinib, FIG. 2B",little observed impact on pAKT levels
same,"MAPK pathway output (pMEK, pERK, pRSK)","[1]; RAF inhibitor 0.1-10 μM with or without fixed dose cobimetinib, 24 hours, FIG. 2B",only in combination with cobimetinib effectively inhibited MAPK pathway output
same,downregulation of DUSP6 and SPRY4,[2],downregulation of these genes was more profound than expected if the effect of combining the two single agents was merely additive
same,induction of apoptosis,[3],significant induction of cell apoptosis; also recorded: increased cleaved PARP
same,single-agent effect on cell growth,"[4]; 8-day clonogenic, 50-100 nM cobimetinib, 100 nM AZ-628",had little effect on cell growth on their own
same,synergy with cobimetinib in colony formation,"[4]; 8 days, crystal violet, FIG. 2F, 5E",marked synergy
same,association of combination sensitivity with KRAS-G13D,"[5]; AZ-628 and cobimetinib, FIGS. 6A-6C",significant association between sensitivity to the RAF plus MEK inhibitor combination and presence of the G13D mutation; also recorded: KRAS-G13D mutant cell lines are more sensitive to the combination of RAF and MEK inhibition
same,synergy score (positive Bliss excess) with cobimetinib by genotype,"[5]; co-dilution with cobimetinib, 3 days, FIG. 5A","Significantly higher synergy scores were observed in KRAS and NRAS mutant cell lines compared to either BRAF-V600 mutants or wild-type; also recorded: greater synergy in RAS mutant (G12/G13/Q61) cell lines, and a subset of RAS/RAF wild-type cell lines relative to BRAF-V600 cell lines"
same,synergy with cobimetinib by KRAS knock-in,[6],displayed greater synergy than KRAS-G12D and KRAS-G12C knock-in cells; also recorded: greater in KRAS-G13D mutant SW48 cells compared to KRAS-G12D or KRAS-G12C mutant SW48 cells
same,synergy (positive Bliss excess) with pictilisib,[7],"large general increased synergy in the AZ-628/pictilisib combination compared to the cobimetinib/pictilisib combination; also recorded: synergizes with pan-PI3K inhibitor, pictilisib (GDC-0941)"
same,"effect on mean viability, NRAS mutant vs BRAF-V600E",[8]; FIG. 8A,approximately equivalent effects on mean viability
same,"cell viability and 1050, NRAS mutant vs BRAF-V600E","[8]; separate study, FIGS. 8C and 8D",had an equivalent effect in NRAS mutant and BRAF-V600E mutant cell lines
same,"tumor growth, combination with cobimetinib","[9]; NCI-H2122, AZ-628+GDC-0973, FIG. 3A",robust combination effect
same,tolerability / body weight,"[9]; NCI-H2122 xenograft mice, combination with cobimetinib, FIG. 3B","well tolerated in the mice, resulting in little or minimal changes in body weight post-treatment"
